Here are results for three compounds from article PMC9250534, “Synthesis and direct assay of large macrocycle diversities by combinatorial late-stage modification at picomole scale” (Nature Communications, 2022).

“And” between values parts separate entries of the source, which are not always exact repeats. Equal values may be shown once. Read-outs that look alike come from different tables or passages of the source.

For series [1], the target named is T1, MDM2 (Homo sapiens, UniProt Q00987). The series is described as follows: IC50 of purified MDM2-binding macrocycles, fluorescence polarization competition with FP53. To be noted: for IC50: HPLC-purified macrocycle, FP displacement of fluorescent reporter peptide; for anisotropy: replicates 1-3. On the procedure: Volumes of 5 μL of purified macrocycles (20 mM in DMSO) were serial diluted two-fold in 100% DMSO in a low dead-volume ECHO source plate. Using acoustic droplet transfer, 150 nL of each dilution was transferred to a 384 well low volume polystyrene plate (Nunc, 264705). […] Fluorescence anisotropy was measured as described above. The percentage of bound inhibitor was calculated using the following equation4 %boundinhibitor=N−X/N−P×100 where N is the average anisotropy of the DMSO controls, X is the anisotropy value obtained for each well, and P is the average anisotropy of the unbound probe. The IC50s were determined by plotting the percent of bound inhibitor against the logarithm of the corresponding macrocycle concentration, and the curves were fitted in GraphPad Prism 6 as described above.
Background: Fluorescence polarisation rises when a labelled molecule tumbles more slowly, as on binding a larger partner.

Series [2] addresses T1, MDM2. The series can be described thus: Kd of MDM2 binders by surface plasmon resonance (SPR). The format is binding. To be noted: unlabeled macrocycles; triplicate. As for the experimental part: Experiments were performed using a GE Healthcare Biacore 8 K instrument. MDM2 (10 μg/mL) was dissolved in 10 mM MES buffer (pH 6.0) and immobilized on three channels of a CM5 series S chip (Cytiva, 29104988) using EDC/NHS amine coupling conditions in running buffer (10 mM PBS pH 7.4, 150 mM NaCl, 3 mM KCl, and 0.005% v/v Tween 20). Typical immobilization level was 6000 to 7000 resonance units (RUs). The reference cell was treated the same way without MDM2. For the measurement of binding kinetics and dissociation constants, five serial dilutions (3-fold) of macrocycles plus a DMSO blank were prepared in running buffer (10 mM PBS pH 7.4, 150 mM NaCl, 3 mM KCl, and 0.005% v/v Tween 20, and 0.5% v/v DMSO) and analyzed in single cycle kinetics mode with contact and dissociation times of 120 s and 60 s, respectively. The data was collected and analyzed using the Biacore 8 K Control Software.
Supplementary Figure 14. Binding of macrocycles to MDM2 measured by SPR. a, Single-cycle SPR sensorgrams for fluorescein-labeled macrocycles, positive control nutlin-3a (not fluorescein labeled), and negative controls (thrombin inhibitors; not fluorescein labeled). RU, response unit. b, Single-cycle SPR sensorgrams for macrocycles M6, M7, M8 and M10 (not fluorescein-labeled), performed in triplicate.
(1 picture or pasted object on this page, not shown here)
For orientation: In SPR one partner is held on a chip, and binding of the other changes the refractive index at the surface.

Series [3] deals with T1, MDM2. The series is described as follows: MDM2 binding (FP53 displacement) by HPLC fractions of resynthesized hit reactions. As for the experimental part:
For hits from the MDM2 screen, reactions were performed in the same way but at a 50 nmol scale, and purified with the same method but a 10–80% gradient of solvent B and over 22 min. Fractions were lyophilized and dissolved in 40 μL of DMSO, 160 μL of water was added, and 5 μL of each fraction was transferred to a 384-well plate (Nunc, 264705), and 15 μL of premixed MDM2/FP53 peptide were added (final concentrations: 1.2 μM MDM2, 50 nM FP53, 5% DMSO).

For series [4] the following is noted: prodrug; cited from earlier work.
Series [5] concerns MDM2. The conditions noted are these: MDM2 inhibitor in clinical studies; literature value, no reference given; read-out: HTRF IC50; cited from earlier work. For orientation: TR-FRET usually uses a lanthanide donor and a delayed reading to cut background.

T1 sequence (Q00987 whole entry): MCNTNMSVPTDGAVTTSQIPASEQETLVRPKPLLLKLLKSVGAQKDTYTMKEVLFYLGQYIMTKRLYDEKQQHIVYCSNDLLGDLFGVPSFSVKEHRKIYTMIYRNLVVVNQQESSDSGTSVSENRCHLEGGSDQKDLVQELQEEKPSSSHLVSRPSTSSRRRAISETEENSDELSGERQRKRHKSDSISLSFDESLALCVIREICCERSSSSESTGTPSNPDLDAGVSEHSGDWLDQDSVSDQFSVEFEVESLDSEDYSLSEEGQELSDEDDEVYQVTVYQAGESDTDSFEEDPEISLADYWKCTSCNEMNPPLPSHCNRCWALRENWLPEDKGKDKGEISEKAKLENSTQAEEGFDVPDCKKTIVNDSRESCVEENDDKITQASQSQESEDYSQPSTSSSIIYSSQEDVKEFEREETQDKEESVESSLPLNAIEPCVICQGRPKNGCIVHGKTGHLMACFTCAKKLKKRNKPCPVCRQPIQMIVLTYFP

`O=C(NC[C@@H]1NC(=O)[C@H]2CCCN(C2)C(=O)CCSSCCNC(=O)[C@H](Cc2c[nH]c3ccccc23)NC1=O)c1ccc(Cl)s1` [M6]: the IC50 was 2.4 µM in series [1] (average of 3 replicates, read-out: IC50 Average); 2.6 µM in series [1] (replicate 1, read-out: IC50 Replicate 1); 1.9 µM in series [1] (replicate 2, read-out: IC50 Replicate 2); 2.6 µM in series [1] (replicate 3, read-out: IC50 Replicate 3). Also, the “displacement of fluorescent peptide probe from MDM2” value in series [1] (HPLC-purified macrocycles, FP competition) is listed as “efficiently displaced”. The anisotropy in series [1] (Log[Macrocycle] M -4.0) is 25 and 23 and 22; in series [1] (Log[Macrocycle] M -4.3), 31 and 28 and 30; in series [1] (Log[Macrocycle] M -4.6), 33 (2×) and 32; in series [1] (Log[Macrocycle] M -4.9), 38 and 32 and 40; in series [1] (Log[Macrocycle] M -5.2), 47 and 39 and 44; in series [1] (Log[Macrocycle] M -5.5) it was 51 and 45 and 47. Further, the anisotropy in series [1] (Log[Macrocycle] M -5.8) is 62 and 52 and 55; in series [1] (Log[Macrocycle] M -6.1), 69 and 59 and 62; in series [1] (Log[Macrocycle] M -6.4) it was 80 and 67 and 64; in series [1] (Log[Macrocycle] M -6.7), 83 and 68 and 74; in series [1] (Log[Macrocycle] M -7.0), 78 and 72 and 75; in series [1] (Log[Macrocycle] M -7.3) it was 86 and 75 and 80. Moreover, the anisotropy was 89 and 77 and 85 in series [1] (Log[Macrocycle] M -7.6); 88 and 77 and 82 in series [1] (Log[Macrocycle] M -7.9); 89 and 77 and 85 in series [1] (Log[Macrocycle] M -8.2); 91 and 80 and 78 in series [1] (Log[Macrocycle] M -8.5). In series [2], the Kd stood at 0.6 ± 0.3 µM. In addition, the “Fraction bound (fraction fluorescent probe displaced)” value (“Fraction bound” below) in series [3] (HPLC Fraction 1 of acylation reaction) is on record as -0.09; in series [3] (HPLC Fraction 2 of acylation reaction) it was 0.04; in series [3] (HPLC Fraction 3 of acylation reaction), 0.0145; in series [3] (HPLC Fraction 4 of acylation reaction), 0.04; in series [3] (HPLC Fraction 5 of acylation reaction), -0.0633; in series [3] (HPLC Fraction 6 of acylation reaction), -0.0373. The “Fraction bound” value in series [3] (HPLC Fraction 7 of acylation reaction) was -0.0114; in series [3] (HPLC Fraction 8 of acylation reaction), -0.0114; in series [3] (HPLC Fraction 9 of acylation reaction) it was 0.0664; in series [3] (HPLC Fraction 10 of acylation reaction), -0.0373; in series [3] (HPLC Fraction 11 of acylation reaction), -0.09; in series [3] (HPLC Fraction 12 of acylation reaction), -0.0633. In addition, the “Fraction bound” value in series [3] (HPLC Fraction 13 of acylation reaction) was -0.0373; in series [3] (HPLC Fraction 14 of acylation reaction), 0.27; in series [3] (HPLC Fraction 15 of acylation reaction) it was -0.22; in series [3] (HPLC Fraction 16 of acylation reaction), -0.0114; in series [3] (HPLC Fraction 17 of acylation reaction), 0.04; in series [3] (HPLC Fraction 18 of acylation reaction), -0.0373. For the same compound, the “Fraction bound” value is given as -0.24 in series [3] (HPLC Fraction 19 of acylation reaction) and -0.0633 in series [3] (HPLC Fraction 20 of acylation reaction).

On to `CCCCCCOC(=O)NC(=N)c1ccc(NCc2nc3cc(C(=O)N(CCC(=O)OCC)c4ccccn4)ccc3n2C)cc1` [dabigatran etexilate], for which the oral availability in series [4] is listed as less than 6.5%.

`COc1cc(C(=O)O)ccc1NC(=O)[C@@H]1N[C@@H](CC(C)(C)C)[C@](C#N)(c2ccc(Cl)cc2F)[C@H]1c1cccc(Cl)c1F` [idasanutlin (RG7388), idasanutlin]: the IC50 in series [5] is […].

Broadly, the IC50 is the concentration that gives 50% inhibition. One may read the Kd as the concentration at which binding is half-saturated. Read a high Kd as weaker binding.
